{"source": "patent US20040137082A1", "about": "“Compounds and methods for reducing myostatin concentration” (priority 2003, published 2004)", "system": "myostatin protein", "experiment": "Column chromatography of muscle homogenate over Cystoseira canariensis fractions in place of the heparin column, eluate read by SDS-PAGE and Western blot", "type": "binding, human", "conditions": "fraction used as column in place of heparin, plus sepharose; crude muscle homogenate", "text": "The testing involved the use of column chromatography analysis of Cystoseira canariensis fractions made as described herein. In the initial testing, the method described by Se-Jin-Lee and Alexandra McPherron, “Regulation of Myostatin Activity and Muscle Growth,” Proc. Nat'l Acad. Sci., Vol. 98, No. 16, pp. 9306-9311 (2001) (FIG. 1), was followed. FIG. 2 hereof provides an illustration of the experimental apparatus used. […]\nProtein sodium dodecyl sulfate-polyacrylamide gel electrophoresis (“SDS-PAGE”) was performed with gradient gel from 10 to 20% acrylamide concentrations described by Laemmli UK, “Cleavage of Structural Proteins During 15 Assembly of the Head of Bacteriophage T4,” Nature, 227: 680-685 (1970). […] The supernatant fraction of each sample was removed and used to determine protein concentration by measuring absorbance at 280 nanometers (nm). […]\nAfter transfer, membranes were blocked in buffer containing 0.5% Tween-20, 0.2% gelatin, and 3.0% dry milk (blocking buffer) for at least 1 hour at room temperature. […] The relative concentration of myostatin protein in each sample was determined by scanning densitometry. […]"}
{"substance": "heparin", "values": [{"measurement": "affinity to myostatin (anti-myostatin Western blot of protein eluted from the chromatography column)", "value": "cross-recognized 36-37 kDa protein"}]}
